{
  "source": "patent US20090012088A1",
  "about": "(priority 2005, published 2009)",
  "key": {"[1]": {"test_system": "neuronally differentiated PC-12 cells", "test": "Protection from rotenone induced toxicity in neuronally differentiated PC-12 cells", "format": "cell-based", "method": "Rotenone is a complex I poison and is widely used in cell culture and animal models of PD. (20, 31, 32) To determine if PIP-1 protects cells from rotenone insult, PC-12 cells are neuronally differentiated (with neuronal growth factor β for 10 days) and then treated with 10 μM rotenone and a range of PIP-1 concentrations. After 72 hours, cell death is assessed using propidium iodide staining as measured by flow cytometry. […] To determine the features on PIP-1 that are important for PARG inhibition and cell protection, three derivatives are constructed that lacked key functionality (see FIG. 19 compounds labeled 3, 4 and 5).\nCell culture conditions: HL-60 and SK-N-SH cells are grown in RPMI 1640 media supplemented with 10% FBS and PC-12 cells are grown in RPMI 1640 media supplemented with 10% HS and 5% FBS. All cell lines are incubated at 37° C. in a 5% CO2, 95% air atmosphere. HL-60 cells are split every two to three days as needed and SK-N-SH cells are split when they reach approximately 90% confluency at a 1:6 ratio. SK-N-SH cells are differentiated by adding media containing 10 μM retinoic acid (in DMSO). Media is replaced every other day and cells are differentiated for a total of 12 days. PC-12 cells are differentiated by adding media containing 25 ng/mL Neuronal Growth Factro β. Media is replaced every other day and cells are differentiated for a total of 10 days. Differentiation is observed by microscopy.\nProtection of Rotenone and MPP^+ induced toxicity in PC-12 and SK-N-SH cells: SK-N-SH and PC-12 cells are neuronally differentiated as described above. 10 μM rotenone, 10 μM MPP^+ and various concentrations of PIP-1 or its derivatives are added to the cells and incubated for 72 h. The cells are then washed in PBS and the viability is determined by adding propidium iodide to 1 μg/mL and measuring the fluorescent intensity of each cell by flow cytometry."}, "[2]": {"test_system": "primary dopaminergic neurons from the midbrain of embryonic rats", "test": "Protection of primary dopaminergic neurons from rotenone (TH/MAP2 immunocytochemistry)", "format": "cell-based, rat", "conditions": "100 nM rotenone, 48 h, % TH+ of MAP2+ cells", "method": "With in vitro PARG inhibition, cell permeability, a structure-activity-relationship, and protection in cell culture models established, the protective properties of PIP-1 are evaluated in cultures of primary dopaminergic neurons taken from the midbrain of embryonic rats. After isolation, these neurons are treated with 100 nM rotenone and a range of PIP-1 concentrations. Cells are stained with antibodies to MAP2 and tyrosine hydroxylase (TH) to determine the proportion of dopaminergic neurons remaining.\nPreparation of Primary Mesencephalic Cultures: Primary Midbrain Cultures are prepared using a modified version of a previously described protocol^2. All of the procedures involving animal handling are reviewed and approved by the Purdue Animal Care and Use Committee. […]\nTreatment of primary cultures with rotenone and PIP-1: AraC-treated primary cultures are incubated in fresh media for 72 h. […] After 48 h, the cells are analyzed immunocytochemically as described below.\nImmunocytochemistry: Primary cells are fixed in 4% (w/v) paraformaldehyde in PBS for 30 min. […] MAP2- and TH-immunoreactive primary neurons are counted in 10 randomly chosen observation fields for each experimental condition using a Nikon TE2000-U inverted fluorescence microscope at a total magnification of 200×. The data are expressed as the percentage of MAP2-positive neurons that are also TH-positive. […]"}},
  "note": "Entries after “also recorded” stand apart in the source; their conditions may differ. Read-outs that look alike come from different tables or passages of the source.",
  "data": [
    {"smiles": "Nc1c(Cl)cnn(-c2ccccc2)c1=O", "note": "[compound 5, 4-Amino-5-chloro-2-phenyl-2H-pyridazin-3-one]", "values": [
      {"measurement": "Protection of rotenone-treated neuronally differentiated PC-12 cells (in words)", "setting": "[1]", "result": "inactive"},
      {"measurement": "Protection of rotenone-treated neuronally differentiated PC-12 cells (in words)", "setting": "[1]; listed as analogue 5", "result": "do not protect"},
      {"measurement": "Protection of dopaminergic neurons from rotenone induced cell death", "setting": "[2]", "result": "no protection; also recorded: does not significantly protect"}
    ]},
    {"smiles": "CN(C)c1cnn(-c2ccccc2)c(=O)c1N", "note": "[PIP-1, 4-Amino-5-dimethylamino-2-phenyl-2H-pyridazin-3-one]", "values": [
      {"measurement": "Protection of rotenone-treated neuronally differentiated PC-12 cells (in words)", "setting": "[1]", "result": "protect"},
      {"measurement": "EC50", "setting": "[1]; Rattus norvegicus, differentiated PC-12 cells, 10 μM rotenone, 72 h, read-out: EC50 (IC50) for protection from rotenone induced toxicity", "result": 5.36, "unit": "µM"},
      {"measurement": "Protection of dopaminergic neurons from rotenone induced cell death", "setting": "[2]", "result": "considerable protection; also recorded: protects dopaminergic neurons from rotenone induced cell death"}
    ]}
  ]
}
